# Key:
# [1] = Survival analysis, treatment versus control group (Kaplan-Meier); type: in vivo, rabbit; conditions: 11 animals, control 18.6 days
# Description: FIG. 9 is a graph showing survival of untreated (control) versus 3-bromopyruvate treated animals.
# The control group consisted of 10 animals and the treatment group consisted of 11 animals. The Kaplan-Meier method was used to estimate survival curves. […] The mean survival time in the control group is 18.6 days as compared to the treatment group, with 50.0 days.
# HepG2 = experiment: ATP levels after treatment, HepG2; type: cell-based, human; conditions: 0.1, 0.2, 0.3 mM for 1 and 3 hours
# Experimental: ATP levels were measured in various cell lines, e.g., HepG2, Sk-Hep1, and Vx-2 after 3-bromopyruvate treatment. In each case, cells were treated with increasing concentration of 3-bromopyruvate (0.1 mM, 0.2 mM, and 0.3 mM) for 1 and 3 hours before measuring ATP levels in the cell. FIGS. 5 (A-C) show the ATP depletion observed following 3-bromopyruvate treatment in HepG2, Sk-Hep1, and Vx-2 cell lines, respectively.
# [2] = test system: mitochondrial hexokinase of the VX2 tumor; experiment: Hexokinase activity assay coupled to glucose-6-phosphate dehydrogenase; type: biochemical, rabbit; conditions: VX2 tumor mitochondria, cell free
# Experimental: The freshly isolated liver or VX2 tumor tissues (15-20 g wet weight) was rinsed in 3 volumes of H-medium (210 mM D-mannitol, 70 mM sucrose, 2 mM Hepes, and 0.05% bovine albumin, pH 7.4) at 4° C. and minced with a razor blade as finely as possible. A 30% (V/V) suspension was made using ice-cold H-medium in a Potter-Elvehjem glass homogenizer (55 ml capacity), and homogenization was achieved by applying 4 complete up and down strokes through the suspension with a rotating (˜400 rpm), serrated, teflon pestle attached to a motor. To remove cell debris and nuclei, the resultant homogenate was diluted to twice the initial volume and centrifuged at 630×g for 8 minutes at 4° C. in a Sorvall RC-2B centrifuge using a GSA rotor. The supernatant was removed and then centrifuged at 6,800 g for 15 min under the same conditions. The resultant supernatant was saved and referred to here as the cytosolic faction. The pellet was resuspended in the initial volume of H-medium and centrifuged twice at 9,800×g for 15 min at 4° C. The washed pellet represents the mitochondrial fraction.
# The assay coupled the glucose-6-phosphate formed in the hexokinase reaction to the glucose-6-phosphate dehydrogenase reaction. Here, NADP+, oxidizes glucose-6-phosphate to a g-lactone while becoming reduced to NADPH, thus allowing the formation of the latter to be monitored spectrophotometrically at 340 nm. […]
# [3] = Acute toxicity study, single IV dose in rabbits; type: in vivo, rabbit
# Experimental: In addition, an acute toxicity study was performed to determine the effects of 3-bromopyruvate administered IV. Based on the data acquired in rats, rabbits (2 animals per group followed for 1 week) were given 25 ml of 15, 20, and 25 mM 3-bromopyruvate as a single IV dose (i.e., using dose identified for rats).
smiles,measurement,setting,value
O=C(O)C(=O)CBr [3-bromopyruvate],mean survival time,[1],50.0 days
same,ATP levels,HepG2,ATP depletion
same,concentration for complete inhibition of hexokinase activity,[2],5 mM
same,organ toxicity,[3]; 20 mM single IV dose,no evidence of any organ toxicity
same,"therapeutic dose, intravenous","[3]; 25 ml single IV dose, 1 week",20 mM
same,"therapeutic dose, intravenous",[3]; single IV dose,16.8 mg/kg

# From patent US20100203110A1, “Therapeutics for Cancer Using 3-Bromopyruvate and Other Selective Inhibitors of ATP Production” (The Johns Hopkins University, priority 2006, published 2010)
